Assay results from patent US20050272035A1, “Functional screening method” (priority 2002, published 2005).

Legend:
[1] = tested on: ATF1 (activating transcription factor 1); experiment: Nuclear trafficking (N/C ratio) of ATF1-EGFP indicator in transiently transfected HeLa cells; type: cell-based; settings: 1 μM, 5 minutes, scatterplot FIG. 9
Procedure: Expression vectors encoding cDNA-EGFP indicators were transiently transfected into HeLa cells growing in wells of 96 well microtitre plates by chemically mediated transfection (Fugene, Roche) and cells incubated under standard growth conditions for 24 hours to permit synthesis of indicator fusion proteins. Cells were subsequently stained with DRAQ 5, a cell permeable nuclear DNA binding dye (Biostatus), to fluorescently mark cell nuclei, and all wells imaged with dual laser excitation (EGFP 488 nm, DRAQ 5 633 nm) using an IN Cell Analyzer (Amersham Biosciences). Data for green (EGFP) and red (DRAQ 5) fluorescence were collected for all cells (FIG. 6) and used to determine thresholds for data separation of transfected cells (EGFP fluorescence above threshold) from non-transfected cells (EGFP fluorescence below threshold).
Indicator proteins derived from a range of cDNAs as described for Example 1 were transfected into HeLa cells and allowed to express for 24 hours. Following expression, cells were transferred into serum-free media for 2 hours to allow effects of stimuli from serum factors such as cortisol to decay. […] This algorithm allows the spatial distribution of cDNA-EGFP fusion proteins to be quantitated in expressing cells: a low N/C ratio indicating a cytoplasmic location for the indicator protein, a high N/C ration indicating a nuclear location. […]

[2] = tested on: Cyt-C (EGFP-Cytochrome C); experiment: Granularity and Membrane Spot image analysis of EGFP-Cytochrome C indicator in HeLa cells; type: cell-based; settings: staurosporine treated HeLa cells, FIG. 10 inset
Text: A further group of indicator proteins were transfected into HeLa cells and cells imaged before and after exposure to staurosporine as described in Example 2. […] These algorithms return results which quantitate fluorescence in degrees of granularity (i.e. low value indicates uniform distribution, high value indicates punctate distribution) and in terms of membrane localisation.

SMILES: CN[C@@H]1C[C@H]2O[C@@](C)([C@@H]1OC)n1c3ccccc3c3c4c(c5c6ccccc6n2c5c31)C(=O)NC4 [staurosporine]
- response of ATF1 indicator N/C ratio to modulator [1]: specific and differential responses
- ratio of outputs of Granularity and Membrane Spot algorithms for Cyt-C indicator [2]: highest differential return from the two algorithms
